Values after ≈ are worked out from the molar mass of the structure shown.
How the values were obtained:
[1] = system: MCF7; assay: Antiproliferative activity against human MCF7 cells after 3 days by MTT assay; format: functional, cell-based; settings: MCF7, 72 h
[2] = system: HeLa; assay: Antiproliferative activity against human HeLa cells after 3 days by MTT assay; format: functional, cell-based; settings: 72 h
[3] = system: Bel-7402; assay: Antiproliferative activity against human Bel7402 cells after 3 days by MTT assay; format: functional, cell-based; settings: Bel-7402, 72 h
[4] = Thermodynamic solubility of the compound in phosphate buffer at pH 7.4 at 1 mg after 10 mins by HPLC -UV analysis; format: physicochemical; settings: read-out: Therm_solubility

| IC50 [1] [µM] | IC50 [2] [µM] | IC50 [3] [µM] | solubility thermodynamic at 10 min [4] [µg/mL] | SMILES |
| --- | --- | --- | --- | --- |
| 36.3 | 42.9 | 38.1 |  | O=C(N[C@@H](COC(=O)[C@@H](Cc1ccccc1)NC(=O)c1ccccc1O)Cc1ccccc1)c1ccccc1 |
| > 100 | > 100 | > 100 | 370 (≈ 709 µM) | O=C(N[C@H](COC(=O)[C@H](Cc1ccccc1)NC(=O)c1ccc(O)cc1)Cc1ccccc1)c1ccccc1 |
| > 100 | > 100 | > 100 |  | C[C@@H](NC(=O)c1ccccc1)C(=O)OC[C@@H](Cc1ccccc1)NC(=O)c1ccccc1 |
| > 100 | > 100 | > 100 |  | O=C(N[C@@H](COC(=O)[C@@H](Cc1ccccc1)NC(=O)c1ccccc1)Cc1ccccc1)c1ccccc1 |
| 79.9 | 56.4 | 69.8 | 207 (≈ 466 µM) | CC(=O)N[C@H](Cc1ccccc1)C(=O)OC[C@H](Cc1ccccc1)NC(=O)c1ccccc1 |
| > 100 | > 100 | > 100 |  | CC(=O)N[C@@H](COC(=O)[C@H](Cc1ccccc1)NC(=O)c1ccccc1)Cc1ccccc1 |
| 11.9 | 15.2 | 14.5 | 77.4 (≈ 148 µM) | O=C(N[C@H](COC(=O)[C@@H](Cc1ccccc1)NC(=O)c1ccccc1O)Cc1ccccc1)c1ccccc1 |
| 39.2 | 27.9 | 33.6 |  | O=C(Cc1ccccc1O)N[C@@H](Cc1ccccc1)C(=O)OC[C@@H](Cc1ccccc1)NC(=O)c1ccccc1 |
| 79.5 | > 100 | 89 | 79.7 (≈ 179 µM) | CC(=O)N[C@H](COC(=O)[C@@H](Cc1ccccc1)NC(=O)c1ccccc1)Cc1ccccc1 |
| > 100 | > 100 | > 100 | 3.21 (≈ 6.34 µM) | O=C(N[C@H](COC(=O)[C@@H](Cc1ccccc1)NC(=O)c1ccccc1)Cc1ccccc1)c1ccccc1 |
| 52.5 | 42.8 | 70.9 |  | O=C(Cc1ccc(O)cc1)N[C@H](Cc1ccccc1)C(=O)OC[C@@H](Cc1ccccc1)NC(=O)c1ccccc1 |
| 70.3 | 54.4 | 41.1 |  | O=C(N[C@@H](COC(=O)[C@@H](Cc1ccccc1)NC(=O)c1ccccc1OCc1ccccc1)Cc1ccccc1)c1ccccc1 |
| > 100 | > 100 | > 100 |  | O=C(Cc1ccc(O)cc1)N[C@@H](Cc1ccccc1)C(=O)OC[C@@H](Cc1ccccc1)NC(=O)c1ccccc1 |
| > 100 | > 100 | > 100 |  | C[C@H](COC(=O)[C@H](Cc1ccccc1)NC(=O)c1ccccc1)NC(=O)c1ccccc1 |
| > 100 | > 100 | > 100 | 223 (≈ 356 µM) | O=C(Cc1ccccc1OCc1ccccc1)N[C@@H](Cc1ccccc1)C(=O)OC[C@H](Cc1ccccc1)NC(=O)c1ccccc1 |
| > 100 | > 100 | > 100 |  | C[C@H](NC(=O)c1ccccc1)C(=O)OC[C@@H](Cc1ccccc1)NC(=O)c1ccccc1 |
| > 100 | > 100 | > 100 |  | CC(=O)N[C@@H](COC(=O)[C@@H](Cc1ccccc1)NC(=O)c1ccccc1)Cc1ccccc1 |
| > 100 | > 100 | > 100 | 192 (≈ 445 µM) | C[C@@H](NC(=O)c1ccccc1)C(=O)OC[C@H](Cc1ccccc1)NC(=O)c1ccccc1 |
| > 100 | > 100 | > 100 | 236 (≈ 549 µM) | C[C@@H](COC(=O)[C@@H](Cc1ccccc1)NC(=O)c1ccccc1)NC(=O)c1ccccc1 |
| > 100 | > 100 | > 100 | 329 (≈ 764 µM) | C[C@H](NC(=O)c1ccccc1)C(=O)OC[C@H](Cc1ccccc1)NC(=O)c1ccccc1 |
| > 100 | > 100 | > 100 | 295 (≈ 550 µM) | O=C(Cc1ccc(O)cc1)N[C@H](Cc1ccccc1)C(=O)OC[C@H](Cc1ccccc1)NC(=O)c1ccccc1 |
| 88.4 | > 100 | > 100 | 560 (≈ 1260 µM) | CC(=O)N[C@@H](Cc1ccccc1)C(=O)OC[C@H](Cc1ccccc1)NC(=O)c1ccccc1 |
| 49 | 30.4 | 64.8 | 18.2 (≈ 34.7 µM) | O=C(N[C@H](COC(=O)[C@H](Cc1ccccc1)NC(=O)c1ccccc1O)Cc1ccccc1)c1ccccc1 |
| 42.2 | 24.6 | 31.8 | 42.6 (≈ 69.5 µM) | O=C(N[C@H](COC(=O)[C@@H](Cc1ccccc1)NC(=O)c1ccccc1OCc1ccccc1)Cc1ccccc1)c1ccccc1 |

| IC50 [1] [µM] | IC50 [2] [µM] | IC50 [3] [µM] | solubility thermodynamic at 10 min [4] [µg/mL] | SMILES |
| --- | --- | --- | --- | --- |
| > 100 | > 100 | > 100 | 26.3 (≈ 43 µM) | O=C(N[C@H](COC(=O)[C@H](Cc1ccccc1)NC(=O)c1ccccc1OCc1ccccc1)Cc1ccccc1)c1ccccc1 |
| 94.8 | > 100 | > 100 | 8.85 (≈ 17.5 µM) | O=C(N[C@H](COC(=O)[C@H](Cc1ccccc1)NC(=O)c1ccccc1)Cc1ccccc1)c1ccccc1 [ASPERPHENAMATE] |
| > 100 | > 100 | > 100 | 1590 (≈ 3040 µM) | O=C(N[C@H](COC(=O)[C@H](Cc1ccccc1)NC(=O)c1cccc(O)c1)Cc1ccccc1)c1ccccc1 |
| 18.4 | 19.5 | 29.7 |  | O=C(Cc1ccccc1O)N[C@H](Cc1ccccc1)C(=O)OC[C@@H](Cc1ccccc1)NC(=O)c1ccccc1 |
| > 100 | > 100 | > 100 | 513 (≈ 1190 µM) | C[C@@H](COC(=O)[C@H](Cc1ccccc1)NC(=O)c1ccccc1)NC(=O)c1ccccc1 |
| 62.9 | 53.3 | 54 | 524 (≈ 977 µM) | O=C(Cc1ccccc1O)N[C@H](Cc1ccccc1)C(=O)OC[C@H](Cc1ccccc1)NC(=O)c1ccccc1 |
| > 100 | > 100 | > 100 | 349 (≈ 650 µM) | O=C(Cc1ccccc1O)N[C@@H](Cc1ccccc1)C(=O)OC[C@H](Cc1ccccc1)NC(=O)c1ccccc1 |
| > 100 | > 100 | > 100 |  | C[C@H](COC(=O)[C@@H](Cc1ccccc1)NC(=O)c1ccccc1)NC(=O)c1ccccc1 |
| 32.8 | 52.1 | 51.4 |  | O=C(N[C@@H](COC(=O)[C@@H](Cc1ccccc1)NC(=O)c1ccc(O)cc1)Cc1ccccc1)c1ccccc1 |
| 53.2 | 59 | 68.7 | 302 (≈ 578 µM) | O=C(N[C@H](COC(=O)[C@@H](Cc1ccccc1)NC(=O)c1ccc(O)cc1)Cc1ccccc1)c1ccccc1 |
| > 100 | > 100 | > 100 |  | CC(=O)N[C@@H](Cc1ccccc1)C(=O)OC[C@@H](Cc1ccccc1)NC(=O)c1ccccc1 |
| 42.4 | 42.5 | 41.2 |  | O=C(N[C@@H](COC(=O)[C@H](Cc1ccccc1)NC(=O)c1ccccc1O)Cc1ccccc1)c1ccccc1 |
| > 100 | > 100 | > 100 |  | O=C(N[C@@H](COC(=O)[C@H](Cc1ccccc1)NC(=O)c1ccccc1)Cc1ccccc1)c1ccccc1 |
| 28.8 | 25.5 | 37.8 | 135 (≈ 216 µM) | O=C(Cc1ccccc1OCc1ccccc1)N[C@H](Cc1ccccc1)C(=O)OC[C@H](Cc1ccccc1)NC(=O)c1ccccc1 |
| > 100 | > 100 | > 100 |  | CC(=O)N[C@H](Cc1ccccc1)C(=O)OC[C@@H](Cc1ccccc1)NC(=O)c1ccccc1 |
| > 100 | > 100 | > 100 |  | O=C(N[C@@H](COC(=O)[C@H](Cc1ccccc1)NC(=O)c1cccc(O)c1)Cc1ccccc1)c1ccccc1 |
| 79.6 | 62.7 | 94.4 | 109 (≈ 204 µM) | O=C(Cc1ccc(O)cc1)N[C@@H](Cc1ccccc1)C(=O)OC[C@H](Cc1ccccc1)NC(=O)c1ccccc1 |
| 28.2 | 58.8 | 70.6 |  | O=C(Cc1ccccc1OCc1ccccc1)N[C@@H](Cc1ccccc1)C(=O)OC[C@@H](Cc1ccccc1)NC(=O)c1ccccc1 |
| 55.3 | 63.4 | 49.9 |  | O=C(N[C@@H](COC(=O)[C@@H](Cc1ccccc1)NC(=O)c1cccc(O)c1)Cc1ccccc1)c1ccccc1 |
| 42.9 | 26.1 | 40.2 | 2000 (≈ 3820 µM) | O=C(N[C@H](COC(=O)[C@@H](Cc1ccccc1)NC(=O)c1cccc(O)c1)Cc1ccccc1)c1ccccc1 |
| 85.8 | 72.5 | 71.7 |  | O=C(N[C@@H](COC(=O)[C@H](Cc1ccccc1)NC(=O)c1ccccc1OCc1ccccc1)Cc1ccccc1)c1ccccc1 |
| 59.7 | 62.9 | 55.6 |  | O=C(N[C@@H](COC(=O)[C@H](Cc1ccccc1)NC(=O)c1ccc(O)cc1)Cc1ccccc1)c1ccccc1 |
| 48.6 | 71.5 | 79.1 | 485 (≈ 1090 µM) | CC(=O)N[C@H](COC(=O)[C@H](Cc1ccccc1)NC(=O)c1ccccc1)Cc1ccccc1 |
